The values below are quoted from earlier work in patent US8148574B2, “Method for producing 5-aminolevulinic acid hydrochloride” (Cosmo Oil Co., Ltd., priority 2005, dated 2012).

For orientation: solubility means the dissolved amount per volume that the medium holds.

Where only a bound is given, the exact number is not on record here.

For this series the following is noted: in water, at room temperature; depends on pH, temperature and coexisting solute.

For `Cl.NCC(=O)CCC(=O)O` [5-aminolevulinic acid hydrochloride], the solubility is not below 3000 mM.
